Laboratory results from PubChem BioAssay (NCI).
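Grown in 96-well plates, cells were treated for 48 hours with each compound at five concentrations. Insufficient inhibition: endpoint recorded as highest concentration tested. The concentration for 50% growth inhibition is given as GI50. The concentration for full growth arrest is given as TGI.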

Columns and labels:
Assay in all cases: NCI tumour cell line growth inhibition, 48 h
SF-539 CNS = test system: SF-539 CNS
MALME-3M melanoma = test system: MALME-3M melanoma
IGROV1 ovarian = test system: IGROV1 ovarian
UACC-257 melanoma = test system: UACC-257 melanoma
OVCAR-8 ovarian = test system: OVCAR-8 ovarian
DU-145 prostate = test system: DU-145 prostate
A498 renal = test system: A498 renal
CCRF-CEM leukemia = test system: CCRF-CEM leukemia
MOLT-4 leukemia = test system: MOLT-4 leukemia
HOP-92 NSCLC = test system: HOP-92 NSCLC
T-47D breast = test system: T-47D breast
OVCAR-4 ovarian = test system: OVCAR-4 ovarian
BT-549 breast = test system: BT-549 breast
SK-OV-3 ovarian = test system: SK-OV-3 ovarian
K-562 leukemia = test system: K-562 leukemia
SR leukemia = test system: SR leukemia
NCI/ADR-RES ovarian = test system: NCI/ADR-RES ovarian
SN12C renal = test system: SN12C renal
OVCAR-3 ovarian = test system: OVCAR-3 ovarian
TK-10 renal = test system: TK-10 renal
NCI-H460 lung = test system: NCI-H460 lung
HOP-62 NSCLC = test system: HOP-62 NSCLC
MCF7 breast = test system: MCF7 breast
HCT-116 colon = test system: HCT-116 colon
SW-620 colon = test system: SW-620 colon
HL-60(TB) leukemia = test system: HL-60(TB) leukemia
M14 melanoma = test system: M14 melanoma
U251 CNS = test system: U251 CNS
786-0 renal = test system: 786-0 renal
SK-MEL-2 melanoma = test system: SK-MEL-2 melanoma
A549 NSCLC = test system: A549 NSCLC
SF-268 CNS = test system: SF-268 CNS
SK-MEL-28 melanoma = test system: SK-MEL-28 melanoma
SF-295 CNS = test system: SF-295 CNS
UACC-62 melanoma = test system: UACC-62 melanoma
KM12 colon = test system: KM12 colon
SK-MEL-5 melanoma = test system: SK-MEL-5 melanoma
MDA-MB-435 = test system: MDA-MB-435
MDA-MB-231 breast = test system: MDA-MB-231 breast
CAKI-1 renal = test system: CAKI-1 renal
EKVX NSCLC = test system: EKVX NSCLC
MDA-MB-468 breast = test system: MDA-MB-468 breast
COLO 205 colon = test system: COLO 205 colon
PC-3 prostate = test system: PC-3 prostate
HCC-2998 colon = test system: HCC-2998 colon
LOX IMVI melanoma = test system: LOX IMVI melanoma
OVCAR-5 ovarian = test system: OVCAR-5 ovarian
NCI-H23 lung = test system: NCI-H23 lung
RXF 393 renal = test system: RXF 393 renal
SNB-75 CNS = test system: SNB-75 CNS
NCI-H522 lung = test system: NCI-H522 lung
HS 578T breast = test system: HS 578T breast
HCT-15 colon = test system: HCT-15 colon
HT29 colon = test system: HT29 colon
NCI-H226 lung = test system: NCI-H226 lung
UO-31 renal = test system: UO-31 renal
SNB-19 CNS = test system: SNB-19 CNS
RPMI-8226 leukemia = test system: RPMI-8226 leukemia
ACHN renal = test system: ACHN renal

COc1ccc(OC)c(-c2cc(-c3c[nH]c4ccccc34)nc(N)c2C#N)c1 showed a GI50 (SF-539 CNS) of 2.9 µM, a TGI (SF-539 CNS) of 11.7 µM and a GI50 (MALME-3M melanoma) of 3.25 µM. It also gave a TGI (MALME-3M melanoma) of 16.7 µM, a GI50 (IGROV1 ovarian) of 5.59 µM and a TGI (IGROV1 ovarian) of 23.1 µM. For the same compound, the GI50 (UACC-257 melanoma) was 9.47 µM, the TGI (UACC-257 melanoma) was 21.5 µM and the GI50 (OVCAR-8 ovarian) was 4.94 µM. For the same compound, the TGI (OVCAR-8 ovarian) was 18.2 µM, the GI50 (DU-145 prostate) was 8.2 µM and the TGI (DU-145 prostate) was 27.5 µM. It also gave a GI50 (A498 renal) of 8.86 µM, a TGI (A498 renal) of 21.9 µM and a GI50 (CCRF-CEM leukemia) of 2.4 µM. It also gave a TGI (CCRF-CEM leukemia) of 28.8 µM, a GI50 (MOLT-4 leukemia) of 3.84 µM and a TGI (MOLT-4 leukemia) of 27 µM. It also gave a GI50 (HOP-92 NSCLC) of 1.3 µM, a TGI (HOP-92 NSCLC) of 4.38 µM and a GI50 (T-47D breast) of 2.18 µM. For the same compound, the TGI (T-47D breast) was 12.6 µM, the GI50 (OVCAR-4 ovarian) was 5.42 µM and the TGI (OVCAR-4 ovarian) was 25.3 µM. For the same compound, the GI50 (BT-549 breast) was 1.96 µM, the TGI (BT-549 breast) was 12.3 µM and the GI50 (SK-OV-3 ovarian) was 3.63 µM. The TGI (SK-OV-3 ovarian) was 18 µM, the GI50 (K-562 leukemia) was 0.881 µM and the TGI (K-562 leukemia) was 82.3 µM. For the same compound, the GI50 (SR leukemia) was 0.539 µM, the TGI (SR leukemia) was 21.2 µM and the GI50 (NCI/ADR-RES ovarian) was 1.22 µM. It also gave a TGI (NCI/ADR-RES ovarian) of 5.02 µM, a GI50 (SN12C renal) of 5.06 µM and a TGI (SN12C renal) of 17.7 µM. For the same compound, the GI50 (OVCAR-3 ovarian) was 2.94 µM, the TGI (OVCAR-3 ovarian) was 14.2 µM and the GI50 (TK-10 renal) was 11.1 µM. For the same compound, the TGI (TK-10 renal) was 33.7 µM, the GI50 (NCI-H460 lung) was 1.58 µM and the TGI (NCI-H460 lung) was 13.2 µM. For the same compound, the GI50 (HOP-62 NSCLC) was 2.88 µM, the TGI (HOP-62 NSCLC) was 16.2 µM and the GI50 (MCF7 breast) was 0.135 µM. For the same compound, the TGI (MCF7 breast) was 12.5 µM, the GI50 (HCT-116 colon) was 2.42 µM and the TGI (HCT-116 colon) was 13.2 µM. For the same compound, the GI50 (SW-620 colon) was 2.9 µM, the TGI (SW-620 colon) was 15.6 µM and the GI50 (HL-60(TB) leukemia) was 2.42 µM. It also gave a TGI (HL-60(TB) leukemia) of 25.4 µM, a GI50 (M14 melanoma) of 1.6 µM and a TGI (M14 melanoma) of 11.6 µM. It also gave a GI50 (U251 CNS) of 3.2 µM, a TGI (U251 CNS) of 13.8 µM and a GI50 (786-0 renal) of 2.61 µM. It also gave a TGI (786-0 renal) of 9.13 µM, a GI50 (SK-MEL-2 melanoma) of 2.39 µM and a TGI (SK-MEL-2 melanoma) of 6.58 µM. It also gave a GI50 (A549 NSCLC) of 3.74 µM, a TGI (A549 NSCLC) of 27.5 µM and a GI50 (SF-268 CNS) of 3.63 µM. It also gave a TGI (SF-268 CNS) of 19 µM, a GI50 (SK-MEL-28 melanoma) of 3.46 µM and a TGI (SK-MEL-28 melanoma) of 17.8 µM. For the same compound, the GI50 (SF-295 CNS) was 3.43 µM, the TGI (SF-295 CNS) was 13 µM and the GI50 (UACC-62 melanoma) was 2.67 µM. The TGI (UACC-62 melanoma) was 13.5 µM, the GI50 (KM12 colon) was 2.71 µM and the TGI (KM12 colon) was 13.6 µM. For the same compound, the GI50 (SK-MEL-5 melanoma) was 0.804 µM, the TGI (SK-MEL-5 melanoma) was 4.18 µM and the GI50 (MDA-MB-435) was 0.39 µM. For the same compound, the TGI (MDA-MB-435) was 1.86 µM, the GI50 (MDA-MB-231 breast) was 2.06 µM and the TGI (MDA-MB-231 breast) was 12.6 µM. It also gave a GI50 (CAKI-1 renal) of 1.51 µM, a TGI (CAKI-1 renal) of 20.6 µM and a GI50 (EKVX NSCLC) of 1.57 µM. The TGI (EKVX NSCLC) was 16.4 µM, the GI50 (MDA-MB-468 breast) was 0.0659 µM and the TGI (MDA-MB-468 breast) was 0.369 µM. For the same compound, the GI50 (COLO 205 colon) was 2.81 µM, the TGI (COLO 205 colon) was 10.7 µM and the GI50 (PC-3 prostate) was 1.93 µM. The TGI (PC-3 prostate) was 15.5 µM, the GI50 (HCC-2998 colon) was 2.98 µM and the TGI (HCC-2998 colon) was 13.9 µM. For the same compound, the GI50 (LOX IMVI melanoma) was 2.95 µM, the TGI (LOX IMVI melanoma) was 12.8 µM and the GI50 (OVCAR-5 ovarian) was 5.94 µM. It also gave a TGI (OVCAR-5 ovarian) of 21.8 µM, a GI50 (NCI-H23 lung) of 2.82 µM and a TGI (NCI-H23 lung) of 15.2 µM. It also gave a GI50 (RXF 393 renal) of 1.77 µM, a TGI (RXF 393 renal) of 10.4 µM and a GI50 (SNB-75 CNS) of 1.3 µM. It also gave a TGI (SNB-75 CNS) of 5.14 µM, a GI50 (NCI-H522 lung) of 0.736 µM and a TGI (NCI-H522 lung) of 7.28 µM. For the same compound, the GI50 (HS 578T breast) was 2.17 µM, the TGI (HS 578T breast) was 8.13 µM and the GI50 (HCT-15 colon) was 0.903 µM. The TGI (HCT-15 colon) was 13.4 µM, the GI50 (HT29 colon) was 2.74 µM and the TGI (HT29 colon) was 12.3 µM. The GI50 (NCI-H226 lung) was 5.81 µM, the TGI (NCI-H226 lung) was 20.5 µM and the GI50 (UO-31 renal) was 3.9 µM. The TGI (UO-31 renal) was 18.4 µM, the GI50 (SNB-19 CNS) was 5.47 µM and the TGI (SNB-19 CNS) was 19.3 µM. For the same compound, the GI50 (RPMI-8226 leukemia) was 1.95 µM, the TGI (RPMI-8226 leukemia) was greater than 100 µM and the GI50 (ACHN renal) was 4.92 µM. The TGI (ACHN renal) was 22.7 µM.
